Source: PubChem BioAssay (NCI)
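Step 1: Grow cells in 96-well plates. Step 2: Expose to compound for 48 hours at 5 concentrations. Step 3: Interpolate endpoints linearly; if unreached, use highest concentration. GI50 is the concentration that inhibits growth by half. The concentration for full growth arrest is given as TGI.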

Assays:
Assay in all cases: inhibition of tumour cell growth, NCI panel, 48 h
[1] = system: 786-0 renal
[2] = system: A549 NSCLC
[3] = system: ACHN renal
[4] = system: BT-549 breast
[5] = system: CCRF-CEM leukemia
[6] = system: DU-145 prostate
[7] = system: EKVX NSCLC
[8] = system: HCC-2998 colon
[9] = system: HCT-116 colon
[10] = system: HCT-15 colon
[11] = system: HL-60(TB) leukemia
[12] = system: HOP-62 NSCLC
[13] = system: HOP-92 NSCLC
[14] = system: HS 578T breast
[15] = system: HT29 colon
[16] = system: IGROV1 ovarian
[17] = system: K-562 leukemia
[18] = system: KM12 colon
[19] = system: M14 melanoma
[20] = system: MALME-3M melanoma
[21] = system: MCF7 breast
[22] = system: MDA-MB-231 breast
[23] = system: MDA-MB-435
[24] = system: MDA-N
[25] = system: MOLT-4 leukemia
[26] = system: NCI-H226 lung
[27] = system: NCI-H23 lung
[28] = system: NCI-H460 lung
[29] = system: NCI-H522 lung
[30] = system: NCI/ADR-RES ovarian
[31] = system: OVCAR-3 ovarian
[32] = system: OVCAR-4 ovarian
[33] = system: OVCAR-8 ovarian
[34] = system: RXF 393 renal
[35] = system: SF-268 CNS
[36] = system: SF-295 CNS
[37] = system: SF-539 CNS
[38] = system: SK-MEL-28 melanoma
[39] = system: SK-MEL-5 melanoma
[40] = system: SN12C renal
[41] = system: SNB-19 CNS
[42] = system: SNB-75 CNS
[43] = system: SR leukemia
[44] = system: SW-620 colon
[45] = system: T-47D breast
[46] = system: TK-10 renal
[47] = system: U251 CNS
[48] = system: UACC-257 melanoma
[49] = system: UACC-62 melanoma
[50] = system: A498 renal
[51] = system: COLO 205 colon
[52] = system: LOX IMVI melanoma
[53] = system: OVCAR-5 ovarian
[54] = system: PC-3 prostate
[55] = system: RPMI-8226 leukemia
[56] = system: SK-MEL-2 melanoma
[57] = system: SK-OV-3 ovarian
[58] = system: UO-31 renal
[59] = system: CAKI-1 renal

Compound: c1ccc2[nH]c3c(N=NC4=NCCN4)c4ccccc4c-3nc2c1
- TGI [1]: 22.4 µM
- TGI [2]: 16.8 µM
- TGI [3]: > 100 µM
- TGI [4]: 41.9 µM
- TGI [5]: > 100 µM
- TGI [6]: > 100 µM
- TGI [7]: 33.3 µM
- TGI [8]: 14.9 µM
- TGI [9]: 13.4 µM
- TGI [10]: 15.8 µM
- TGI [11]: > 100 µM
- TGI [12]: 39.3 µM
- TGI [13]: 20.4 µM
- TGI [14]: > 100 µM
- TGI [15]: 2.7 µM
- TGI [16]: > 100 µM
- TGI [17]: > 100 µM
- TGI [18]: 15.8 µM
- TGI [19]: 20.4 µM
- TGI [20]: 24.1 µM
- TGI [21]: 11.4 µM
- TGI [22]: 32.4 µM
- TGI [23]: 21.8 µM
- TGI [24]: 20.7 µM
- TGI [25]: > 100 µM
- TGI [26]: 23.7 µM
- TGI [27]: 23.3 µM
- TGI [28]: 7.81 µM
- TGI [29]: 17.3 µM
- TGI [30]: 20.1 µM
- TGI [31]: 30.2 µM
- TGI [32]: > 100 µM
- TGI [33]: 9.39 µM
- TGI [34]: 14.3 µM
- TGI [35]: > 100 µM
- TGI [36]: 12.2 µM
- TGI [37]: 20.2 µM
- TGI [38]: 27.2 µM
- TGI [39]: 15.9 µM
- TGI [40]: > 100 µM
- TGI [41]: 68.9 µM
- TGI [42]: 16.4 µM
- TGI [43]: > 100 µM
- TGI [44]: 13.6 µM
- TGI [45]: > 100 µM
- TGI [46]: 66.6 µM
- TGI [47]: 19.7 µM
- TGI [48]: 36.5 µM
- TGI [49]: 21.1 µM

Compound: Cn1c(=O)c2c(nc3n2CCC(=O)N3CCCCl)n(C)c1=O
- TGI [1]: > 100 µM
- TGI [50]: > 100 µM
- TGI [2]: > 100 µM
- TGI [3]: > 100 µM
- TGI [4]: > 100 µM
- TGI [5]: > 100 µM
- TGI [51]: > 100 µM
- TGI [6]: > 100 µM
- TGI [7]: > 100 µM
- TGI [8]: > 100 µM
- TGI [9]: > 100 µM
- TGI [10]: > 100 µM
- TGI [11]: > 100 µM
- TGI [12]: > 100 µM
- TGI [13]: > 100 µM
- TGI [14]: > 100 µM
- TGI [15]: > 100 µM
- TGI [16]: > 100 µM
- TGI [17]: > 100 µM
- TGI [18]: > 100 µM
- TGI [52]: > 100 µM
- TGI [19]: > 100 µM
- TGI [22]: > 100 µM
- TGI [23]: > 100 µM
- TGI [24]: > 100 µM
- TGI [25]: > 100 µM
- TGI [26]: > 100 µM
- TGI [27]: > 100 µM
- TGI [28]: > 100 µM
- TGI [30]: > 100 µM
- TGI [31]: > 100 µM
- TGI [32]: > 100 µM
- TGI [53]: > 100 µM
- TGI [33]: > 100 µM
- TGI [54]: > 100 µM
- TGI [55]: > 100 µM
- TGI [35]: > 100 µM
- TGI [36]: > 100 µM
- TGI [56]: > 100 µM
- TGI [38]: > 100 µM
- TGI [39]: > 100 µM
- TGI [57]: > 100 µM
- TGI [40]: > 100 µM
- TGI [41]: > 100 µM
- TGI [42]: > 100 µM
- TGI [43]: > 100 µM
- TGI [44]: > 100 µM
- TGI [45]: > 100 µM
- TGI [46]: > 100 µM
- TGI [47]: > 100 µM
- TGI [48]: > 100 µM
- TGI [49]: > 100 µM
- TGI [58]: > 100 µM

Compound: O=C(O)/C=C/c1ccc[c]([Sb](=[O])([OH])[OH])c1
- GI50 [1]: > 100 µM
- TGI [1]: > 100 µM
- GI50 [50]: > 100 µM
- TGI [50]: > 100 µM
- GI50 [2]: > 100 µM
- TGI [2]: > 100 µM
- GI50 [3]: > 100 µM
- TGI [3]: > 100 µM
- GI50 [4]: > 100 µM
- TGI [4]: > 100 µM
- GI50 [59]: > 100 µM
- TGI [59]: > 100 µM
- GI50 [6]: > 100 µM
- TGI [6]: > 100 µM
- GI50 [7]: > 100 µM
- TGI [7]: > 100 µM
- GI50 [8]: > 100 µM
- TGI [8]: > 100 µM
- GI50 [9]: > 100 µM
- TGI [9]: > 100 µM
- GI50 [10]: > 100 µM
- TGI [10]: > 100 µM
- GI50 [11]: > 100 µM
- TGI [11]: > 100 µM
- GI50 [12]: > 100 µM
- TGI [12]: > 100 µM
- GI50 [13]: > 100 µM
- TGI [13]: > 100 µM
- GI50 [14]: > 100 µM
- TGI [14]: > 100 µM
- GI50 [15]: > 100 µM
- TGI [15]: > 100 µM
- GI50 [16]: > 100 µM
- TGI [16]: > 100 µM
- GI50 [17]: > 100 µM
- TGI [17]: > 100 µM
- GI50 [18]: > 100 µM
- TGI [18]: > 100 µM
- GI50 [52]: > 100 µM
- TGI [52]: > 100 µM
- GI50 [19]: > 100 µM
- TGI [19]: > 100 µM
- GI50 [20]: > 100 µM
- TGI [20]: > 100 µM
- GI50 [22]: > 100 µM
- TGI [22]: > 100 µM
- GI50 [23]: > 100 µM
- TGI [23]: > 100 µM
- GI50 [24]: > 100 µM
- TGI [24]: > 100 µM
- GI50 [25]: > 100 µM
- TGI [25]: > 100 µM
- GI50 [26]: > 100 µM
- TGI [26]: > 100 µM
- GI50 [27]: > 100 µM
- TGI [27]: > 100 µM
- GI50 [28]: > 100 µM
- TGI [28]: > 100 µM
- GI50 [29]: > 100 µM
- TGI [29]: > 100 µM
- GI50 [30]: > 100 µM
- TGI [30]: > 100 µM
- GI50 [31]: > 100 µM
- TGI [31]: > 100 µM
- GI50 [32]: > 100 µM
- TGI [32]: > 100 µM
- GI50 [53]: > 100 µM
- TGI [53]: > 100 µM
- GI50 [33]: > 100 µM
- TGI [33]: > 100 µM
- GI50 [54]: > 100 µM
- TGI [54]: > 100 µM
- GI50 [55]: > 100 µM
- TGI [55]: > 100 µM
- GI50 [34]: > 100 µM
- TGI [34]: > 100 µM
- GI50 [35]: > 100 µM
- TGI [35]: > 100 µM
- GI50 [36]: > 100 µM
- TGI [36]: > 100 µM
- GI50 [56]: > 100 µM
- TGI [56]: > 100 µM
- GI50 [38]: > 100 µM
- TGI [38]: > 100 µM
- GI50 [39]: > 100 µM
- TGI [39]: > 100 µM
- GI50 [40]: > 100 µM
- TGI [40]: > 100 µM
- GI50 [41]: > 100 µM
- TGI [41]: > 100 µM
- GI50 [43]: > 100 µM
- TGI [43]: > 100 µM
- GI50 [44]: > 100 µM
- TGI [44]: > 100 µM
- GI50 [45]: > 100 µM
- TGI [45]: > 100 µM
- GI50 [46]: > 100 µM
- TGI [46]: > 100 µM
- GI50 [47]: > 100 µM
- TGI [47]: > 100 µM
- GI50 [48]: > 100 µM
- TGI [48]: > 100 µM
- GI50 [49]: > 100 µM
- TGI [49]: > 100 µM
- GI50 [58]: > 100 µM
- TGI [58]: > 100 µM
